Measured values published in patent publication US20230250417A1, “METHODS FOR DETECTING RNA TRANSLATION” (Eclipse Bioinnovations, Inc., priority 2021, published 2023).
“Also recorded” adds a separate entry of the source.

Assays:
gene FUS = test: Bead barcoded multiplexed RBP/RPS2 binding, genome track view (IGV) with normalized read counts; assay type: cell-based, human; details: cells treated with 200 nM Risdiplam for 2 hours vs DMSO control; FIG. 7
Description: FIG. 7 depicts an IGV screenshot of the gene FUS with normalized read counts for 7 different RBPs and the translation component protein RPS2. Two conditions are shown; one DMSO control and the other cells treated with 200 nM Risdiplam. […] This example illustrates a protocol for a bead barcoded experiment for detecting RNA modifications from cells with RBPs according to an embodiment of the disclosure. The buffers described below are the same as mentioned above with respect to Example 2 unless explicitly stated otherwise. First, Trypan blue stain (Thermo Fisher Scientific, cat. #15250061) or equivalent live cell counting assay was used to valuate cell viability. Next, cell viability was reviewed to be sure it was >95% to ensure intact RNA. Cells were grown to a proper confluence, in most cases grow cells to 75% confluence. Some cells were treated with 200 nM Risdiplam for 2 hours prior to harvesting. First, resuspend anti-rabbit Dynabeads by vortexing or pipetting up and down several times. Second, transfer 500 μL of beads (enough for 20 samples) into a 1.5 mL Eppendorf tube and place tube on DynaMag-2. Third, Remove the supernatant and wash beads thrice with 500 μL PBS, resuspending beads with each wash. Fourth, remove beads from magnet, resuspend beads in 500 μL PBS, add 1.65 μL DBCO-NHS (10 mM in DMSO), and rotate tube at room temperature for 1 hour. […]

[1] = tested on: non-TOP motif containing gene, PARP1; test: Ribo-ABC (oligo conjugated antibody) ribosome-bound RNA read counts, genome track view; assay type: cell-based; details: ribosomal proteins RPS2, RPS3, RPS14, FIG. 2 bottom panel
Description: (§1) Three different ribosomal proteins were used RPS2, RPS3, RPS14.
(§2) This example provides a protocol for a Ribo-ABC experiment according to an embodiment of the disclosure.
(§3) First, the tissue culture plate was placed on leveled ice or on a cooling block pre-chilled to 4° C. Second, the above (plate plus ice or cooling block) was placed into the UV cross-linker. Third, the tissue culture plate lid was removed for cross-linking. Fourth, cross-link at 254-nm UV with an energy setting of 400 mJoules/cm^2. Fifth, while keeping the cells on ice, a cell scraper (Corning, cat. #CLS3010-10EA) was used to scrape the plate. Sixth, the cells were transferred to a 15 mL conical tube. Seventh, the plate was washed once with 5 mL of chilled PBS and added to the same 15 mL tube. Eight, gently resuspended until the sample was homogeneous. Ninth, the 15 mL conical tube was centrifuged at 200×g for 3 minutes at 4° C. Tenth, the sample was aspirated and discarded supernatant. Eleventh, the desired amount of cells for flash freezing was resuspended in chilled PBS (typically 10×10^6 cells per mL). Twelfth, the sample was transferred into 1.5 mL LoBind tubes Tubes (typically 1 mL of 10×10^6 cells per mL). Thirteenth, the sample was spun down at 200×g for 3 minutes at 4° C. Fourteenth, the supernatant was aspirated, and the cell pellets were frozen quickly by submerging the 1.5 mL LoBind tubes in liquid nitrogen. […]

[2] = tested on: TOP motif containing gene, GAPDH; test: as above; assay type: cell-based; details: ribosomal proteins RPS2, RPS3, RPS14, FIG. 2 top panel
Description: as §1, §2, §3

| Compound | change in binding on gene FUS (7 RBPs and RPS2) versus DMSO control (gene FUS) | change in read counts of PARP1 upon Torin treatment [1] | change in read counts of GAPDH upon Torin treatment [2] |
| --- | --- | --- | --- |
| Cc1cn2nc(-c3cc(=O)n4cc(N5CCNC6(CC6)C5)ccc4n3)cc(C)c2n1 [Risdiplam] | a change in binding across the two conditions; also recorded: a difference observed between the two conditions | – | – |
| Torin | – | no change in read counts | reduced read counts |
